Data as given in patent publication EP2815749A1, “Solid form of 4-amino-2-(2,6-dioxopiperidine-3-yl)isoindoline-1,3-dione having specified X-ray diffraction pattern” (IP Gesellschaft für Management mbH, priority 2013, dated 2014).
Counter-ions that a name gives are not always drawn. Like-named read-outs stand apart in the source and are kept apart here.

How the values were obtained:
[1] = Moisture sorption isotherm of Example 1; type: physicochemical; settings: 25°C
Excerpt: Example 1 has moisture sorption weight gains of 0.8 weight % and 2.8 weight % between 25% and 75% relative humidity and 5% and 95% relative humidity, respectively. […] PXRD Peak Positions (degrees 2Θ±0.1):
The hemisulfate salt of Compound (VI) has the surprising advantage of reducing the variability in the bioavailability of Compound (VI) and/or increasing the bioavailability of Compound (VI) to the patient. Based on these in vitro and in vivo data, it is expected that the hemisulfate will provide a significant advantage of consistency in bioavailability among patients over the free form. […] Single Crystal Data (LVL): Data were collected on a Bruker-Nonius CAD4 serial diffractometer. […] Intensities were measured using Cu Ka radiation (λ = 1.5418 A) at a constant temperature with the Θ-2Θ variable scan technique and were corrected only for Lorentz-polarization factors. […] Indexing and processing of the measured intensity data were carried out with the HKL2000 software package (Otwinowski, Z & Minor, W. (1997) in Macromolecular Crystallography, eds. Carter, W.C. Jr. & Sweet, R.M. (Academic, NY), Vol. 276, pp307-326) in the Collect program suite. […] Indexing and processing of the measured intensity data were carried out with the APEX2 software package/program suite (APEX2 Data collection and processing user interface: APEX2 User Manual, v1.27; BRUKER AXS, inc., Madison, WI). […]

[2] = Stability in water slurry; type: physicochemical; settings: room temperature, after two days
Experimental: (§1) Other Crystalline Forms of Example 1: Form P22C: prepared by heating Form HI.5-1 ({drug6b}) at 60°C for 2 hours or at 75°C for 5 minutes. […] Form P33 ({drug6c}): Form HI.5-1 ({drug6b}) converted to Form P33 ({drug6c}) between 50°C and 75°C in variable temperature PXRD experiment. […] Form P35: Prepared from slurry of Form HI.5-1 ({drug6b}) in dry MeOH under molecular sieves (7% RH). Converted to Form P33 ({drug6c}) when dried at 60°C. Stability in Water Slurry: An aqueous slurry of Example 1 was prepared and stored at room temperature. […] The hemisulfate salt of Compound (VI) has the surprising advantage of providing a salt that is physically stable and chemically stable compared to other salts of Compound (VI). Further, the hemisulfate salt had the surprising advantage of being provided in a stable crystalline form, Form HI.5-1 ({drug6b}).

[3] = In vivo pharmacokinetics of Compound (VI) free base and hemisulfate salt capsules; settings: dogs; 150 mg capsule oral; famotidine pretreatment
Experimental: An aliquot of 0.050 mL of dog EDTA plasma was used for the assay. […] A 450 µï^ portion of the organic layer was removed and evaporated to dryness. The residue was reconstituted in 300 µl, of the reconstitution solution (30% acetonitrile in 10 mM NH40Ac with 0.01% acetic acid). All liquid transfer steps were performed using a Perkin Elmer JANUS Mini® liquid handler except for the addition of the internal standard solution. A 5 µï^ aliquot of the extracted sample was injected to uHPLC-MS/MS system. The uHPLC was performed on a LEAP 4X Ultra uHPLC system with LEAP HTC PAL autosampler. Mobile phase A contained 10 mM NH4OAc and 0.01% acetic acid in ACN/water (10:90), and mobile phase B contained 10 mM NH4OAc and 0.01% acetic acid in ACN/water (90: 10). […] The flow rate was 0.6 mL/min and column temperature was maintained at 60°C condition. Detection was accomplished using an AB Sciex Triple Quad 5500 mass spectrometer in positive ESI with turbo ion spray ionization and using multiple reaction monitoring (MRM) mode. […] Data acquisition and quantification were performed using AB Sciex Analyst® 1.5.1 software.

[4] = Water activity studies between crystalline forms; type: physicochemical
Experimental: as §1

[5] = Solid state stability study of Example 1 (hemisulfate salt, Form HI.5-1); type: physicochemical
Experimental: Stability Study: The solid state stability of Example lwas tested by exposing samples to various temperature and relative humidity conditions for periods of 1, 2, and 4 weeks. […] Table 4: Solid State Stability of Hemisulfate Salt, Form HI.5-1 ({drug6b}): […]

[6] = 1440 min
[7] = for Stability in water: 2 days at 50°C
Experimental: (§2) Hygroscopicity: Sorption/desorption isotherms were measured using the VT1100 humidity microbalance (VTI Corporation, Hialeah, FL, USA). Measurements were carried out at 25°C. Samples were dried under N2 flow at 25°C. […] Concentration in supernatant was measured by gravimetry for organic solvents and by HPLC from aqueous solvents and propylene glycol.

[8] = for water uptake at 5 % RH: 25°C
Experimental: as §2

[9] = 25 RH/ 60 °C (first such line, r3), 1 week
[10] = 25 RH/ 60 °C (first such line, r3), 2 weeks
[11] = 25 RH/ 60 °C (first such line, r3), 4 weeks
[12] = 25 RH/ 60 °C (first such line, r3), Initial
[13] = 25 RH/ 60 °C (second such line, r5), 1 week
[14] = 25 RH/ 60 °C (second such line, r5), 2 weeks
[15] = 25 RH/ 60 °C (second such line, r5), 4 weeks
[16] = 25 RH/ 60 °C (third such line, r6), 1 week
[17] = 25 RH/ 60 °C (third such line, r6), 2 weeks
[18] = 25 RH/ 60 °C (third such line, r6), 4 weeks

## N[C@@H]1c2cccnc2[C@H](OC(=O)N2CCC(n3c(=O)[nH]c4ncccc43)CC2)CC[C@H]1c1cccc(F)c1F [Example 1, (5S,6S,9R)-5-Amino-6-(2,3-difluorophenyl)-6,7,8,9-tetrahydro-5H-cyclohepta[b]pyridin-9-yl 4-(2-oxo-2,3-dihydro-1H-imidazo[4,5-b]pyridin-1-yl) piperidine-1-carboxylate, Hemisulfate Salt]
[1]; between 5% and 95% relative humidity
  moisture sorption weight gain: 2.8 weight %
[1]; between 25% and 75% relative humidity
  moisture sorption weight gain: 0.8 weight %
[2]
  Chemical degradation in aqueous slurry: no significant chemical degradation
  PXRD pattern after aqueous slurry: no change in the PXRD pattern
[3]
  BA Mean: 34.73%
[4]; versus Form P22C
  Relative stability (water activity): more stable at > 23% relative humidity
[4]; versus Form P33
  Relative stability (water activity): more stable at > 23% relative humidity
[5]; [9]
  % pot.: 94.4%
  % total imp.: 0.27%
[5]; [10]
  % pot.: 96.8%
  % total imp.: 0.27%
[5]; [11]
  % pot.: 96.9%
  % total imp.: 0.27%
[5]; [12]
  % pot.: 98.5%
  % total imp.: 0.27%
[5]; [13]
  % pot.: 95.1%
  % total imp.: 0.27%
[5]; [14]
  % pot.: 98.5%
  % total imp.: 0.27%
[5]; [15]
  % pot.: 97.0%
  % total imp.: 0.27%
[5]; [16]
  % pot.: 101.6%
  % total imp.: 0.28%
[5]; [17]
  % pot.: 102.6%
  % total imp.: 0.27%
[5]; [18]
  % pot.: 110.0%
  % total imp.: 0.27%
[5]; HIL/UV, 1 week
  % pot.: 100.7%
  % total imp.: 0.27%
[5]; HIL/UV, 2 weeks
  % pot.: 96.9%
  % total imp.: 0.27%
[5]; Refrigerated, 1 week
  % pot.: 98.0%
  % total imp.: 0.29%
[5]; Refrigerated, 2 weeks
  % pot.: 96.5%
  % total imp.: 0.27%
[5]; Refrigerated, 4 weeks
  % pot.: 105.7%
  % total imp.: 0.27%
[5]; Refrigerated, Initial
  % pot.: 98.5%
  % total imp.: 0.27%
[5]; various temperature and relative humidity conditions, up to four weeks of storage
  Solid state stability: stable

## N#Cc1ccc([C@H]2CCc3cncn32)c(F)c1 [nitrate salt, 4-(R)-(6,7-dihydro-5H-pyrrolo[1,2-c]imidazol-5-yl)-3-fluoro-benzonitrile]
[6]; pH 1, 25°C
  solubility: > 50 mg/mL
[7]
  Stability in water: stable
[7]; water
  Solubility in water at the 0.1% target concentration: soluble
[8]
  water uptake at 5 % RH: 0%
[8]; r.h. 0%
  Moisture gain: 0.0%
[8]; r.h. 5%
  Moisture gain: 0.0%
[8]; r.h. 25%
  Moisture gain: 0.1%
[8]; r.h. 50%
  Moisture gain: 0.2%
[8]; r.h. 75%
  Moisture gain: 0.2%
[8]; r.h. 85%
  Moisture gain: 0.2%
[8]; r.h. 95%
  Moisture gain: 0.2%

## N#Cc1ccc([C@H]2CCc3cncn32)c(F)c1 [phosphate salt, 4-(R)-(6,7-dihydro-5H-pyrrolo[1,2-c]imidazol-5-yl)-3-fluoro-benzonitrile]
[6]; pH 6.8, 25°C
  solubility: > 50 mg/mL
[7]
  Stability in water: stable
[8]
  water uptake at 5 % RH: 0%
[8]; r.h. 0%
  Moisture gain: 0.0%
[8]; r.h. 5%
  Moisture gain: 0.0%
[8]; r.h. 25%
  Moisture gain: 0.1%
[8]; r.h. 50%
  Moisture gain: 0.1%
[8]; r.h. 75%
  Moisture gain: 0.2%
[8]; r.h. 85%
  Moisture gain: 0.3%
[8]; r.h. 95%
  Moisture gain: 0.8%
